Test results from patent US20230270703A1, “COMPOUNDS AND METHODS FOR THE TREATMENT OF EYE DISORDERS” (OccuRx Pty Ltd, priority 2020, published 2023).
Like-named read-outs stand apart in the source and are kept apart here. Values belong to the compound of their own block, whether it stands above or below them.

Assays:
[1] = human plasma, cited from earlier work
[2] = Tranilast plasma pharmacokinetics after 200 mg oral dosage (data from Charng et al.); type: in vivo, humans; details: human plasma
Experimental: Pharmacokinetic data for a comparator compound Tranilast following 200 mg oral dosage are also shown. See, e.g., Charng M, Ding P Y, Chuang M, et al. Pharmacokinetic Properties of Tranilast in Chinese People. Journal of Food and Drug Analysis, Vol. 10, No. 3, 2002, Pages 135-138. Tranilast is approved for use in an amount of 3 × 100 mg/day.

[3] = Dog plasma pharmacokinetic study, single daily dose for 28 days, plasma on first day of dosing; type: in vivo, Beagle dogs; details: beagle, read-out: elimination half-life (converted)
Experimental: Beagle dogs were administered a single daily dose of (E)-2-[[3-Methoxy-4-(difluoromethoxy)phenyl-1-oxo-2-propenyl]amino]benzoic at 25, 50 or 100 mg/kg for 28 consecutive days. Plasma was collected up to 24 hours post-dose on the first day of dosing.

[4] = Human Phase I clinical trial plasma pharmacokinetics, single 50 mg dose; type: in vivo, humans; details: 50 mg single oral dose
Experimental: Six healthy male volunteers in a Phase I clinical trial received a single dose of 50 mg (E)-2-[[3-Methoxy-4-(difluoromethoxy)phenyl-1-oxo-2-propenyl]amino] benzoic acid administered as powder-in-capsule. Blood was collected 10 minutes prior to dosing, and at 15 and 30 minutes and 1, 2, 3, 4, 6, 8, 12, 24, 36, 48, 72 and 96 hours post dose into K2EDTA tubes. Samples were spun in a refrigerated centrifuge within 1 hour of collection, at 2000 g for 10 minutes. Plasma was collected and frozen on dry ice.
(§1) The concentration of (E)-2-[[3-Methoxy-4-(difluoromethoxy)phenyl-1-oxo-2-propenyl]amino]benzoic acid in plasma was determined using a validated LC-MS/MS method. A non-compartmental analysis was performed using WinNonLin software. Nominal doses and sampling times were used. Concentration values below the lower limit of quantitation were treated as zero for pharmacokinetic analysis.

[5] = Human clinical plasma pharmacokinetics, single or multiple doses of 200 mg; type: in vivo, humans; details: for Dose normalised AUC0-inf / Dose normalised Cmax / AUC(0-inf) / Cmax / Tmax / half-life: 200 mg oral; for AUC(0-inf) / Cmax / Tmax / half-life: human, plasma, po; for half-life: read-out: T ½ (converted)
Experimental: Clinical pharmacokinetic studies were also conducted on volunteers who received a single dose or multiple doses of 200 mg (E)-2-[[3-Methoxy-4-(difluoromethoxy)phenyl-1-oxo-2-propenyl]amino] benzoic acid administered as powder-in-capsule. Blood was collected 10 minutes prior to dosing, and at 15 and 30 minutes and 1, 2, 3, 4, 6, 8, 12, 24, 36, 48, 72 and 96 hours post dose into K2EDTA tubes. Samples were spun in a refrigerated centrifuge within 1 hour of collection, at 2000 g for 10 minutes. Plasma was collected and frozen on dry ice.
as §1

[6] = Animal pharmacokinetic data, 91 days of dosing in rats; type: in vivo
[7] = Animal pharmacokinetic data, 91 days of dosing in dogs; type: in vivo
[8] = Rabbit plasma and ocular tissue steady state pharmacokinetics, 8 daily oral doses; type: in vivo, Dutch Belted pigmented rabbits; details: for Tmax / Cmax: male, Dutch Belted
Experimental: Male Dutch Belted pigmented rabbits were administered a once daily dose of 50 or 100 mg/kg of (E)-2-[[3-Methoxy-4-(difluoromethoxy)phenyl-1-oxo-2-propenyl]amino]benzoic acid by oral gavage for 8 days. The oral formulation was prepared in 1% carboxymethyl cellulose. Blood was collected into tubes containing K2EDTA from two animals/dose/time point at 0 (predose), 1, 2, 4, 8, and 24 hours after the last dose on Study Day 8. Immediately following blood collection, animals were sacrificed via overdose of sodium pentobarbital. Blood samples were placed in a chilled cryorack until centrifuged to obtain plasma, which was stored at approximately -70° C. At the time of sacrifice for all animals, both eyes were enucleated, the aqueous humor was collected and discarded, and each eye was then flash frozen in liquid nitrogen for 15 to 20 seconds. The enucleated eye was placed on dry ice or stored at approximately -70° C. for at least two hours. Within approximately 5 days, the choroid-RPE, iris-ciliary body, retina and vitreous humor were collected from the right and left eye. The ocular tissues were rinsed with saline and blotted dry, as appropriate, weighed, and placed on dry ice. Sample analysis was performed using a qualified LC-MS/MS method to ascertain the concentration of (E)-2-[[3-Methoxy-4-(difluoromethoxy)phenyl-1-oxo-2-propenyl]amino]benzoic acid in each tissue matrix. Non-compartmental analysis (Gibaldi and Perrier, 1982) was applied to the individual and mean concentration data. Nominal doses and sampling times were used. Concentration values below the lower limit of quantitation were treated as zero for pharmacokinetic analysis. The plasma and ocular steady state non-compartmental pharmacokinetic parameters for repeated oral administration of 50 or 100 mg/kg on Day 8 are summarized in Table 2 and further below.

[9] = Rat plasma and retina pharmacokinetics, single oral dose 50 mg/kg; type: in vivo, Sprague Dawley rats; details: single oral dose 50 mg/kg
Experimental: Male Sprague Dawley rats were administered a single dose of 50 mg/kg of (E)-2-[[3-Methoxy-4-(difluoromethoxy)phenyl-1-oxo-2-propenyl]amino]benzoic acid by oral gavage. The oral formulation was prepared in 1% carboxymethyl cellulose. Samples were collected from 3 animals/timepoint at 1, 2, 4, 8 and 24 hours after dosing. Whole blood was collected from the tail vein in conscious rats into polypropylene tubes containing heparin. Blood samples were centrifuged immediately (3000 rpm, for 10 minutes) and supernatant plasma removed and snap frozen in liquid N2. After blood collection, animals were euthanised with pentobarbitone (120 mg/kg), eyes were enucleated and retina were weighed, collected and snap frozen in liquid nitrogen. Blood was centrifuged at 3000 rpm for 10 mins at 4° C. and plasma was collected and snap frozen in liquid N2. Plasma and retinal concentrations of (E)-2-[[3-Methoxy-4-(difluoromethoxy)phenyl-1-oxo-2-propenyl]amino]benzoic acid were determined using a validated LC-MS/MS method. Cmax and Tmax was estimated using GraphPad prism software.

[10] = Rat plasma pharmacokinetic study, single daily dose for 28 days, plasma on first day of dosing; type: in vivo, Sprague-Dawley rats; details: Sprague-Dawley, read-out: elimination half-life (converted)
Experimental: Sprague-Dawley rats were administered a single daily dose of (E)-2-[[3-methoxy-4-(difluoromethoxy)phenyl-1-oxo-2-propenyl]amino]benzoic at 25, 50 or 100 mg/kg for 28 consecutive days. Plasma was collected up to 24 hours post-dose on the first day of dosing.

[11] = Human Phase I clinical study, steady state exposure at 50 mg after 14 days dosing; type: in vivo, humans; details: plasma, oral, Data from Phase I (after 14 days dosing)
Experimental: The corresponding data from the human Phase I clinical study is also included below, showing a much greater than predicted Cmax and AUC0-24 at 50 mg dosing.

[12] = Tranilast 200 mg, Day 1, single dose

Dose normalised AUC0-inf ([2]; Tranilast 200 mg oral): 2,060 ng·h/mL | Dose normalised Cmax ([2]; Tranilast 200 mg oral): 210 ng/mL | Dose normalised AUC0-inf [2, 12]: 2,060 ng·h/mL | Dose normalised Cmax [2, 12]: 210 ng/mL
Compound: COc1ccc(/C=C/C(=O)Nc2ccccc2C(=O)O)cc1OC [Tranilast]
AUC(0-inf) ([1]; Tranilast 200 mg oral): 412,000 ng·h/mL | Cmax ([1]; Tranilast 200 mg oral): 42,000 ng/mL | T ½ ([1]; Tranilast 200 mg oral): 7.5 h | Tmax ([1]; Tranilast 200 mg oral): 2.8 h | AUC(0-inf) [1, 12]: 412,000 ng-h/mL | Cmax [1, 12]: 42,000 ng/mL | T ½ [1, 12]: 7.5 h | Tmax [1, 12]: 2.8 h

half-life ([3]; 25 mg/kg): 4.3 h | half-life ([3]; 50 mg/kg): 4.9 h | half-life ([3]; 100 mg/kg): 4.2 h | Dose normalised AUC0-inf [4]: 2,256 ng·h/mL | Dose normalised Cmax [4]: 175 ng/mL | AUC(0-inf) ([4]; male): 113 µg·h/mL | Tmax ([4]; male): 2.5 h | Cmax ([4]; male, powder-in-capsule): 8740 ng/mL | half-life ([4]; male, read-out: T ½ (converted)): 24 h | Dose normalised AUC0-inf ([5]; Day 1, single dose): 1951 ng·h/mL | Dose normalised Cmax ([5]; Day 1, single dose): 164 ng/mL | Dose normalised AUC0-inf ([5]; Day 14, multiple dose): 18,874 ng·h/mL | Dose normalised Cmax ([5]; Day 14, multiple dose): 338 ng/mL | increase in Cmax after 14 days of dosing compared with a single dose ([5]; 200 mg, steady state vs single dose): two-fold increase | AUC(0-inf) ([5]; 200 mg, Day 1, single dose): 390 µg·h/mL | Cmax ([5]; 200 mg, Day 1, single dose): 32800 ng/mL | Tmax ([5]; 200 mg, Day 1, single dose): 3 h | half-life ([5]; 200 mg, Day 1, single dose): 9.6 h | AUC(0-inf) ([5]; 200 mg, Day 14, multiple dose): 3770 µg·h/mL | Cmax ([5]; 200 mg, Day 14, multiple dose): 67600 ng/mL | Tmax ([5]; 200 mg, Day 14, multiple dose): 2.5 h | half-life ([5]; 200 mg, Day 14, multiple dose): 23.2 h | accumulation with multiple dosing [6]: did not show accumulation | accumulation with multiple dosing [7]: did not show accumulation | Tmax ([8]; oral, rabbit ocular tissues, 50 and 100 mg/kg, read-out: Tmax for all analyzed ocular tissues): 1 to 4 h | Cmax ([8]; rabbit Choroid-RPE, 50 mg/kg/day oral, Day 8): 3320 ng/g | Tmax ([8]; rabbit Choroid-RPE, 50 mg/kg/day oral, Day 8, read-out: Tmax): 1 h | Cmax ([8]; rabbit Choroid-RPE, 100 mg/kg/day oral, Day 8): 12300 ng/g | Tmax ([8]; rabbit Choroid-RPE, 100 mg/kg/day oral, Day 8, read-out: Tmax): 2 h | Cmax ([8]; rabbit Iris Ciliary Body, 50 mg/kg/day oral, Day 8): 2510 ng/g | Tmax ([8]; rabbit Iris Ciliary Body, 50 mg/kg/day oral, Day 8, read-out: Tmax): 1 h | Cmax ([8]; rabbit Iris Ciliary Body, 100 mg/kg/day oral, Day 8): 8620 ng/g | Tmax ([8]; rabbit Iris Ciliary Body, 100 mg/kg/day oral, Day 8, read-out: Tmax): 2 h | Cmax ([8]; rabbit Plasma, 50 mg/kg/day oral, Day 8): 15200 ng/mL | Tmax ([8]; rabbit Plasma, 50 mg/kg/day oral, Day 8, read-out: Tmax): 1 h | Cmax ([8]; rabbit Plasma, 100 mg/kg/day oral, Day 8): 42000 ng/mL | Tmax ([8]; rabbit Plasma, 100 mg/kg/day oral, Day 8, read-out: Tmax): 2 h | Cmax ([8]; rabbit Retina, 50 mg/kg/day oral, Day 8): 623 ng/g | Tmax ([8]; rabbit Retina, 50 mg/kg/day oral, Day 8, read-out: Tmax): 1 h | Cmax ([8]; rabbit Retina, 100 mg/kg/day oral, Day 8): 2370 ng/g | Tmax ([8]; rabbit Retina, 100 mg/kg/day oral, Day 8, read-out: Tmax): 4 h | Cmax ([8]; rabbit Vitreous Humour, 50 mg/kg/day oral, Day 8): 3.3 ng/mL | Tmax ([8]; rabbit Vitreous Humour, 50 mg/kg/day oral, Day 8, read-out: Tmax): 1 h | Cmax ([8]; rabbit Vitreous Humour, 100 mg/kg/day oral, Day 8): 11.5 ng/mL | Tmax ([8]; rabbit Vitreous Humour, 100 mg/kg/day oral, Day 8, read-out: Tmax): 4 h | detection in plasma or ocular tissue by 24 hours-post dose ([8]; rabbits, either dose (50 or 100 mg/kg)): could not be detected | Cmax ([9]; male, Sprague Dawley, rat retina, read-out: estimated Cmax in retina): 792 ng/g | estimated maximum concentration in plasma ([9]; rat plasma): 35,134 ng/mL | time of estimated maximum concentration in plasma ([9]; rat plasma): 1 h | time of estimated maximal exposure in retina ([9]; rat retina): 4 h | detection in the plasma and retina at 24-hours post-dose ([9]; rat): still detected | half-life ([10]; 25 mg/kg): 12.9 h | half-life ([10]; 50 mg/kg): 13 h | half-life ([10]; 100 mg/kg): 11 h | Cmax [11]: 6560 ng/mL | AUC(0-t) ([11]; read-out: AUC0-24 hrs, ss): 74 µg·h/mL
Compound: COc1cc(/C=C/C(=O)Nc2ccccc2C(=O)O)ccc1OC(F)F [(E)-2-[[3-methoxy-4-(difluoromethoxy)phenyl-1-oxo-2-propenyl]amino]benzoic acid]
